Laboratory results reported in article PMC8383802 (ACS chemical neuroscience, 2020).

Tests used:
[1] = system: methamphetamine (Meth)-induced hyper-locomotor activity; conditions: cited from earlier work
[2] = system: cocaine self-administered mice; experiment: Cocaine self-administration in mice
PDE4B = PDE4B (Homo sapiens, UniProt Q07343); experiment: IC50 determination on PDE4 isoforms in vitro; assay type: binding; conditions: read-out: IC50 on PDE4B
[3] = Pharmacokinetic study of KVA-D-88 in mice; assay type: in vivo
PDE4D = PDE4D (Homo sapiens, UniProt Q08499); experiment: IC50 determination on PDE4 isoforms in vitro; assay type: binding; conditions: read-out: IC50 on PDE4D
WT C57/BL6 mice = assay type: in vivo
[4] = Brain and blood concentration of KVA-D-88 in mice; assay type: in vivo
alcohol intake = conditions: cited from earlier work; for alcohol intake: mice, without altering total fluid intake, alcohol-induced sedation or alcohol metabolism
[5] = system: Meth self-administered rats; conditions: cited from earlier work
[6] = system: morphine-induced hyper-locomotor activity; conditions: cited from earlier work
[7] = system: heroin self-administration; conditions: cited from earlier work
cocaine reward = conditions: cited from earlier work
[8] = system: alcohol self-administration; conditions: cited from earlier work
[9] = FR1 schedule, 2 h, 5 and 2.5 mg/kg i.p. 30 min before, P < 0.05
[10] = FR3 schedule, 2 h session, 5 mg/kg, P < 0.05

Sequence of PDE4B (Q07343 whole entry, canonical isoform): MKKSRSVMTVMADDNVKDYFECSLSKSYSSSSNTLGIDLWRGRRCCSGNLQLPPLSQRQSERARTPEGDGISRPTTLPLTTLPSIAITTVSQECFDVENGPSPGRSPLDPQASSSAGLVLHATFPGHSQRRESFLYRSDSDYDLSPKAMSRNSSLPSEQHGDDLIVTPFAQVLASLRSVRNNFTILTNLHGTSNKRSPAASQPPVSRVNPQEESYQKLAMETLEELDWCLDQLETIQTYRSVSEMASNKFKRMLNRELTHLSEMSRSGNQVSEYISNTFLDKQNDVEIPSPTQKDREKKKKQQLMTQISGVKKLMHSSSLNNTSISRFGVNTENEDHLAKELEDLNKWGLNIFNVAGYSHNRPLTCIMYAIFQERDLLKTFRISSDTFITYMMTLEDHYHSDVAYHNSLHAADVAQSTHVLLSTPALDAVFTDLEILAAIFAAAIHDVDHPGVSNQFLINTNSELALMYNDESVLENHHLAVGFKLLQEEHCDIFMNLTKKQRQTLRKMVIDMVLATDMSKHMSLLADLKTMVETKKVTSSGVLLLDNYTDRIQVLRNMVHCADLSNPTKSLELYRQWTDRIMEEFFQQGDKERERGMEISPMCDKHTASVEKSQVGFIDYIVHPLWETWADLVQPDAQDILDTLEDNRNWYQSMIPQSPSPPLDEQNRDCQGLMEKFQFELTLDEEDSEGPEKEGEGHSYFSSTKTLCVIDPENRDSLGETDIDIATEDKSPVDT
Sequence of PDE4D (Q08499 whole entry, canonical isoform): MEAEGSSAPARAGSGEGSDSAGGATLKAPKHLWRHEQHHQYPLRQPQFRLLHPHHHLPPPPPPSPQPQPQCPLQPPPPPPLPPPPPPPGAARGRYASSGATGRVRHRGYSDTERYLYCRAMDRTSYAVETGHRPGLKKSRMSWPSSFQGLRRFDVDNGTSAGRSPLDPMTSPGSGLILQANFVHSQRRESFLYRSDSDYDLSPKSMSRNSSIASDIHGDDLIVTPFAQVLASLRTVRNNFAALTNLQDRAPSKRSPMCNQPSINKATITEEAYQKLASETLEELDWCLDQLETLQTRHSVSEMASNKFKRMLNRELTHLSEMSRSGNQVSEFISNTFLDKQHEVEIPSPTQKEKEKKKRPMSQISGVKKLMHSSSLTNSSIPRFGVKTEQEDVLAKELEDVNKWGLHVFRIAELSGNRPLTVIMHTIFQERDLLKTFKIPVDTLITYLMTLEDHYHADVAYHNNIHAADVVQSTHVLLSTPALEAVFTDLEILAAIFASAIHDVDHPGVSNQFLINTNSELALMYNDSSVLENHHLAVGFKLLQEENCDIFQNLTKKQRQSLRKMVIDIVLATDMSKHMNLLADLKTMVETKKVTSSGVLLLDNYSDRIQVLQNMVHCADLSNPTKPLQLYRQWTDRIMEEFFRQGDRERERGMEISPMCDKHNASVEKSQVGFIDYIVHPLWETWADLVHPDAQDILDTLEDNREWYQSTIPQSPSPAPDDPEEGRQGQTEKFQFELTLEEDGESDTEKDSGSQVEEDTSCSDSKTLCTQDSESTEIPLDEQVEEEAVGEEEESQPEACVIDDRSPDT

## CC(N)C(=O)c1c(C(C)C)nn2ccccc12 (stereo not shown) [AV1013]
[1]
  Meth-induced hyper-locomotor activity and sensitization: reduced

## O=C(c1cc2cccnc2n1-c1ccc(Cl)c(Cl)c1)N1CC(F)(F)C1 [KVA-D-88]
[2]; FR1 schedule, 5.0 mg/kg, P < 0.05
  rate of cocaine self-administration: strikingly reduced
[2]; [9]
  number of active nose-pokes: significantly decreased
  number of cocaine infusions: significantly decreased
[2]; [10]
  numbers of active nose-poke: significantly decreased
  numbers of cocaine infusions: significantly decreased
[2]; PR schedule, 3 h session, 5 mg/kg, P < 0.05
  break point: significantly decreased the numbers of break point
[2]; cocaine self-intake, comparison of effective doses
  fold stronger than apremilast on cocaine inhibition: ~10 fold
[2]; dose 0.5 mg/kg
  effect on cocaine self-intake (active nose poke), dose-response: no inhibitory effect
[2]; dose 1.0 mg/kg
  effect on cocaine self-intake (active nose poke), dose-response: no inhibitory effect
[2]; dose 2 mg/kg
  effect on cocaine self-intake (active nose poke), dose-response: showed the inhibitory effects but did not reached the significance
[2]; dose 4 mg/kg, P < 0.05
  effect on cocaine self-intake (active nose poke), dose-response: significant effects
PDE4B
  IC50: 140 nM
[3]; i.v. injection 1 mg/kg
  half-life (t1/2): 6.1 h
  mean residence time (MRT): 5.7 h
[3]; i.v. injection 1 mg/kg, plasma
  AUC from time zero to infinity (AUC∞): 1387.9 ng/mL
  AUC from time zero to the last measurable concentration (AUClast): 1382.9 ng/mL
  maximum plasma concentration (Cmax): 898.2 ng/mL
[3]; oral gavage 10 mg/kg
  AUC∞: 10825.9 ng/mL
  Cmax in the blood: 2150.5 ng/mL
  half-life (t1/2): 7.16 h
  mean residence time (MRT): 9 h
  time to reach maximum concentration in the blood (Tmax): 0.25 h
[3]; through either i.v. injection or p.o. approach
  half-life: 6 to 7 h
PDE4D
  IC50: 880 nM
WT C57/BL6 mice; female mice, both testing doses (5 or 10 mg/kg i.p.), P < 0.05
  effect on cocaine-mediated hyper-locomotion: significantly blocked cocaine-mediated hyper-locomotion
WT C57/BL6 mice; mice, KVA-D-88 without cocaine
  effect on locomotor activity at basal levels: minimal effects
WT C57/BL6 mice; mice, daily pre-administration before cocaine for 7 consecutive days
  effect on cocaine-mediated locomotor sensitization: strikingly blocked cocaine-mediated locomotor sensitization
[4]; i.p. 10 mg/kg, 30 min later
  average concentration in the blood: 3899.2 ng/mL
  concentration ratio of brain: blood (Kp): approximately 0.6
[4]; i.p. 10 mg/kg, 30 min later, whole brain homogenates
  average concentration in the brain: 2347.7 ng/g
[4]; i.v. dosing as printed in the discussion
  concentration ratio (brain vs. plasma): 0.6
[4]; p.o. dosing (10 mg/kg)
  concentration ratio (brain vs. plasma): 1.2

## CCCCOc1cc(CC2CNC(=O)N2)ccc1OC (stereo not shown) [Ro 20-1724]
Alcohol intake
  alcohol intake: reduced alcohol intake

## CCOc1cc([C@@H](CS(C)(=O)=O)N2C(=O)c3cccc(NC(C)=O)c3C2=O)ccc1OC [apremilast, reference compound]
Alcohol intake
  reward-related behavior induced by alcohol: decreasing the reward-related behavior induced by alcohol
[2]; dose 5 mg/kg
  effect on numbers of cocaine self-intake: did not decrease
[2]; dose 20 mg/kg
  effect on numbers of cocaine self-intake: significant its inhibitory effects

## CC(C)C(=O)c1c(C(C)C)nn2ccccc12 [ibudilast]
[1]
  Meth-induced hyper-locomotor activity and sensitization: reduced
[5]; Meth self-administered rats
  drug seeking and intake behaviors: decreased drug seeking and intake behaviors
[5]
  Meth-mediated seeking and consumption behaviors: effective in attenuating

## COc1ccc(C2CNC(=O)C2)cc1OC1CCCC1 (stereo not shown) [rolipram]
[6]
  morphine-induced hyper-locomotor activity and CPP: reduced
Alcohol intake
  alcohol intake: reduced alcohol intake
[7]; fixed ratio 1 (FR1)
  heroin self-administration: did not significantly inhibit
[7]; progressive ratio (PR) paradigm
  rewarding effects of heroin: decreased the rewarding effects
Cocaine reward; mice
  cocaine-induced locomotor sensitization and conditional place preference: attenuated
Cocaine reward; open field test, CPP and self-administration
  cocaine reward, incentive saliency and seeking behavior: reduce cocaine reward, incentive saliency and seeking behavior
[8]
  2-bottle choice alcohol consumption and preference: decreased
  alcohol self-administration: dose-dependently reduced
[5]
  Meth-mediated seeking and consumption behaviors: effective in attenuating
